In patent publication US20200405696A1, “INHIBITORS OF INDOLEAMINE 2,3-DIOXYGENASE AND/OR TRYPTOPHAN 2,3-DIOXYGENASE” (IDORSIA PHARMACEUTICALS LTD, priority 2018, published 2020):

Tests used:
[1] = molecular target: T1, Recombinant human TDO comprising amino acids 19-407 (Homo sapiens, UniProt P48775); assay: TDO2 enzymatic assay (NFK quantified by LCMS); type: biochemical; conditions: 15 nM enzyme, 200 μM L-tryptophan, pH7, 30 minutes pre-incubation at RT; mean values when measured multiple times; read-out: hTDO activity (IC50 in nM)
T1 construct: Recombinant human TDO comprising amino acids 19-407 with a N-terminal hexahistidine tag; hexahistidine (His6) (N); made in house; host or cells: E. coli
Summary of the method: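 NFK formed over 30 min at RT from 200 μM L-tryptophan was measured by LCMS, normalized to d5-tryptophan, after compound (0.5 nM–10 μM, duplicates, 0.6% DMSO) was preincubated 30 min with 15 nM recombinant His-tagged TDO 19-407 in phosphate buffer pH 7. IC50 from four-parameter logistic fit; repeats averaged.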

[2] = molecular target: T2, Recombinant full-length human IDO1 (Homo sapiens, UniProt P14902); assay: IDO1 enzymatic assay (NFK quantified by LCMS); type: biochemical; conditions: 2 nM enzyme, 5 μM L-tryptophan, pH6.5, 30 minutes pre-incubation at RT; mean values when measured multiple times; read-out: hIDO activity (IC50 in nM)
T2 construct: Recombinant full-length human IDO1 with a N-terminal hexahistidine tag; hexahistidine (His6) (N); made in house; host or cells: E. coli
Summary of the method: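 His-tagged human IDO1 (2 nM) in pH 6.5 phosphate buffer with ascorbate, methylene blue and catalase was preincubated with compound (10 μM–0.5 nM, 0.6% DMSO) for 30 min at RT. The reaction then ran with 5 μM L-Trp for 30 min. NFK was measured by LCMS against a d5-Trp standard, and IC50 was obtained by four-parameter fit.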

T2 sequence (P14902 whole entry): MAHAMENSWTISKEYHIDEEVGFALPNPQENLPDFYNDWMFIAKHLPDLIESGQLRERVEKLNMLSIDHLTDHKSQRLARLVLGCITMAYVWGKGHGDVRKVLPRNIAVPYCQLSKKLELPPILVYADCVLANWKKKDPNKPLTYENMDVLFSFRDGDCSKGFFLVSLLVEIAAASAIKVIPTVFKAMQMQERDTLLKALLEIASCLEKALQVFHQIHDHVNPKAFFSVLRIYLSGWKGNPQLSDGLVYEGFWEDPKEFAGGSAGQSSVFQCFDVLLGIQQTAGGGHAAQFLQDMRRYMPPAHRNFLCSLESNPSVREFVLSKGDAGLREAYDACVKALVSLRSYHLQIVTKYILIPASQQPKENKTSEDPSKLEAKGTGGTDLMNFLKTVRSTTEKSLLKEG
T1 sequence (P48775 19-406 limits assumed): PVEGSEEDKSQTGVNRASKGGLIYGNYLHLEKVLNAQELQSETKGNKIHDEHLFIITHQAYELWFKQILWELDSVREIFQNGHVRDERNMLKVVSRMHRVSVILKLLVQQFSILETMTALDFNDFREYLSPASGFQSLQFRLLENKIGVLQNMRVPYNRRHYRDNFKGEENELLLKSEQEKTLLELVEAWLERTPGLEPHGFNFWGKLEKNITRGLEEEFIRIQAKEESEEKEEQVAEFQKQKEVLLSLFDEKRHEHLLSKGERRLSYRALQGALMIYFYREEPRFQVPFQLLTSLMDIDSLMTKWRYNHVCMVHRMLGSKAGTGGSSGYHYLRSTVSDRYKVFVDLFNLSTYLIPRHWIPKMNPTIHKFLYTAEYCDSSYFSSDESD

IC50 [1] [nM] | IC50 [2] [nM] | Structure (SMILES)
> 10200 | 63.2 | OC(c1cn(-c2ccncc2)nn1)c1c(C2CC2)sc2cncn12 (racemic) [Example 30, rac-(2-Cyclopropyl-imidazo[5,1-b]thiazol-3-yl)-(1-pyridin-4-yl-1H-[1,2,3]triazol-4-yl)-methanol]
9520 | 16.9 | COc1ccc(-n2nnc(C(O)c3c(C4CC4)sc4cncn34)c2C)c(C)c1 (racemic) [Example 326, rac-(2-Cyclopropyl-imidazo[5,1-b]thiazol-3-yl)-[1-(4-methoxy-2-methyl-phenyl)-5-methyl-1H-[1,2,3]triazol-4-yl]-methanol]
> 10200 | 7.11 | NS(=O)(=O)CCCOc1ccc(-n2cc(C(O)c3c(C4CC4)sc4cncn34)nn2)cc1 (racemic) [Example 206, rac-3-(4-{4-[(2-Cyclopropyl-imidazo[5,1-b]thiazol-3-yl)-hydroxy-methyl]-[1,2,3]triazol-1-yl}-phenoxy)-propane-1-sulfonic acid amide]
> 10200 | 95 | Cn1cc(-n2cc(C(O)c3c(C4CC4)sc4cncn34)nn2)cn1 (racemic) [Example 43, rac-(2-Cyclopropyl-imidazo[5,1-b]thiazol-3-yl)-[1-(1-methyl-1H-pyrazol-4-yl)-1H-[1,2,3]triazol-4-yl]-methanol]

Continued, compound first:

Structure (SMILES) | IC50 [1] [nM] | IC50 [2] [nM]
CCc1sc2cncn2c1C(O)c1cn(-c2ccc(OCC3CC3)cc2)nn1 (racemic) [Example 54, rac-[1-(4-Cyclopropylmethoxy-phenyl)-1H-[1,2,3]triazol-4-yl]-(2-ethyl-imidazo[5,1-b]thiazol-3-yl)-methanol] | > 10200 | 12.3
Oc1cc(-n2cc(C(O)c3c(C4CC4)sc4cncn34)nn2)ccc1Cl (racemic) [Example 217, rac-2-Chloro-5-{4-[(2-cyclopropyl-imidazo[5,1-b]thiazol-3-yl)-hydroxy-methyl]-[1,2,3]triazol-1-yl}-phenol] | > 10200 | 9.6
Oc1ccc(-n2cc(C(O)c3c(C4CC4)sc4cncn34)nn2)cc1Cl (racemic) [Example 148, rac-2-Chloro-4-{4-[(2-cyclopropyl-imidazo[5,1-b]thiazol-3-yl)-hydroxy-methyl]-[1,2,3]triazol-1-yl}-phenol] | 5130 | 4.31
OC(c1cn(-c2nccc(Br)c2Cl)nn1)c1c(C2CC2)sc2cncn12 (racemic) [Example 200, rac-[1-(4-Bromo-3-chloro-pyridin-2-yl)-1H-[1,2,3]triazol-4-yl]-(2-cyclopropyl-imidazo[5,1-b]thiazol-3-yl)-methanol] | > 10200 | 55.4
OC(c1ccc(-c2cncc3ccccc23)s1)c1c(C2CC2)sc2cncn12 (racemic) [Example 177, rac-(2-Cyclopropyl-imidazo[5,1-b]thiazol-3-yl)-(5-isoquinolin-4-yl-thiophen-2-yl)-methanol] | 8620 | 138
O=C(Nc1ccc(-n2cc(C(O)c3c(C4CC4)sc4cncn34)nn2)cc1)N1CCOCC1 (racemic) [Example 104, rac-Morpholine-4-carboxylic acid (4-{4-[(2-cyclopropyl-imidazo[5,1-b]thiazol-3-yl)-hydroxy-methyl]-[1,2,3]triazol-1-yl}-phenyl)-amide] | > 10200 | 30.6
CC(C)(O)CCOc1ccc(-n2cc(C(O)c3c([C@@H]4C[C@@H]4F)sc4cncn34)nn2)cc1Cl (relative stereo) [Example 309, 4-[2-Chloro-4-(4-{[2-(cis-2-fluoro-cyclopropyl)-imidazo[5,1-b]thiazol-3-yl]-hydroxy-methyl}-[1,2,3]triazol-1-yl)-phenoxy]-2-methyl-butan-2-ol] | > 10200 | 17
Oc1ccc(-n2cc(C(O)c3c(C4CC4)sc4cncn34)nn2)cc1C(F)(F)F (racemic) [Example 209, rac-4-{4-[(2-Cyclopropyl-imidazo[5,1-b]thiazol-3-yl)-hydroxy-methyl]-[1,2,3]triazol-1-yl}-2-trifluoromethyl-phenol] | > 10200 | 22.1
